Results from ChEMBL document CHEMBL5329225, “Solubilizer Tag Effect on PD-L1/Inhibitor Binding Properties for m-Terphenyl Derivatives” (ACS Med Chem Lett, 2024).
Activity calls are given as the source filed them. The rule behind the calls is not given here.

Columns and labels:
[1] = Toxicity in human Jurkat T cells overexpressing PD-1 co-cultured with Chinese hamster CHO cells overexpressing PD-L1 at 0.01 to 100 uM; format: cell-based; conditions: dose 0.01-100 µM
Jurkat [2] = test: Induction of T cell activation in human Jurkat T cells overexpressing PD-1 co-cultured with Chinese hamster CHO cells overexpressing PD-L1 assessed as increase in luciferase activity incubated for 6 hrs by Bio-GloTM reagent based immune checkpoint blockade assay; format: functional
Jurkat [3] = test: Induction of T cell activation in human Jurkat T cells overexpressing PD-1 co-cultured with Chinese hamster CHO cells overexpressing PD-L1 assessed as increase in luciferase activity at 6.4 uM incubated for 6 hrs by Bio-GloTM reagent based immune checkpoint blockade assay; format: functional
[4] = target: Programmed cell death protein 1/Programmed cell death 1 ligand 1 (Homo sapiens, UniProt Q9NZQ7); test: Inhibition of human PD-1/PDL1 interaction incubated for 1 hr by HTRF assay; format: protein-complex assay
Jurkat [5] = test: Induction of T cell activation in human Jurkat T cells overexpressing PD-1 co-cultured with Chinese hamster CHO cells overexpressing PD-L1 assessed as increase in luciferase activity at 1 uM incubated for 6 hrs by Bio-GloTM reagent based immune checkpoint blockade assay; format: functional

Chain of Programmed cell death protein 1/Programmed cell death 1 ligand 1 (Q15116 whole entry): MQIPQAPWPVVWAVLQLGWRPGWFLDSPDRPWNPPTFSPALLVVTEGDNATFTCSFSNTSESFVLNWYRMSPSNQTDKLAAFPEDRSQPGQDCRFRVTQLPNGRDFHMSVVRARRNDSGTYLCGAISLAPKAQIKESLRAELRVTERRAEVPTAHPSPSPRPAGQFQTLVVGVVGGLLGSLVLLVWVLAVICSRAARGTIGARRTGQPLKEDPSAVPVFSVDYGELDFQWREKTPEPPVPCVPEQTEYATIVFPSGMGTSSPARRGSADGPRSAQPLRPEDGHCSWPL
Chain of Programmed cell death protein 1/Programmed cell death 1 ligand 1 (Q9NZQ7 whole entry): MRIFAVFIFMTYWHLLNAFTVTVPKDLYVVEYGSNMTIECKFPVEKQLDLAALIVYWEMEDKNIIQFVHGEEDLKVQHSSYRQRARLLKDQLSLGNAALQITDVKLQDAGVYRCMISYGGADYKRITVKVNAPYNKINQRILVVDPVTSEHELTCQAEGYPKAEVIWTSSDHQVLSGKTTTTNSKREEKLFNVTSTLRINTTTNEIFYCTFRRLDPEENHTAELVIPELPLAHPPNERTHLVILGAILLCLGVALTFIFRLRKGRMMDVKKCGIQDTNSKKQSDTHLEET

| SMILES | Activity [1] | Activity (Jurkat [2]) | Activity (Jurkat [3]) | IC50 [4] | Activity (Jurkat [5]) |
| --- | --- | --- | --- | --- | --- |
| COc1cc(-c2cccc(-c3ccc4c(c3)OCCO4)c2Cl)ccc1CN1CCC(C(=O)NN(C)C)C1 (stereo not given) | Toxic | Dose-Dependent Effect | Active |  |  |
| COc1cc(-c2cccc(-c3ccc4c(c3)OCCO4)c2Cl)ccc1CN1CCCC(C(=O)NC(CO)CO)C1 (stereo not given) |  |  |  | 6 nM |  |
| COc1cc(-c2cccc(-c3ccc4c(c3)OCCO4)c2Cl)ccc1CN1CCC(C(=O)NC(CO)(CO)CO)C1 (stereo not given) |  |  | inactive |  | inactive |
| COc1cc(-c2cccc(-c3ccc4c(c3)OCCO4)c2Cl)ccc1CN1CCC(C(=O)NCCO)C1 (stereo not given) | Toxic | Dose-Dependent Effect |  |  |  |
| COc1cc(-c2cccc(-c3ccc4c(c3)OCCO4)c2Cl)ccc1CN1CCC(C(=O)NO)C1 (stereo not given) |  |  |  |  | inactive |
| COc1cc(-c2cccc(-c3ccc4c(c3)OCCO4)c2Cl)ccc1CN1CCC(C(=O)NCCN)C1 (stereo not given) |  |  | inactive |  | inactive |
| COc1cc(-c2cccc(-c3ccc4c(c3)OCCO4)c2Cl)ccc1CN1CCC(C(=O)NC(CO)CO)C1 (stereo not given) | Toxic | Dose-Dependent Effect | Active |  | inactive |
